Experimental data from patent US20220395500A1, “SMALL MOLECULE ACTIVATORS OF INTERFERON REGULATORY FACTOR 3 AND METHODS OF USE THEREOF” (Neuralexo, Inc., priority 2020, published 2022).

Experiments:
[1] = system: J774-Dual cells; assay: J774-Dual cytotoxicity; format: cell-based, mouse; conditions: Mouse Reporter Cell Line J774; read-out: J774 cytotox CC50
Procedure, shortened: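 CC50 derived from 8-point concentration series in mouse J774-Dual reporter cells, with viability read by CellTiter-Glo in the same plate. Run in parallel with EC50 and ISRE:NFκB ratio determination for cross-species confirmation.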

[2] = system: IP-10 in human monocyte-derived macrophages; assay: IP-10 induction in human monocyte-derived macrophages (ELISA); format: cell-based; conditions: dose response
Description: FIG. 24 is a graph of NA-42 dose dependent IP-10 induction in human monocyte-derived macrophages. IP-10 expression was monitored by Human CXCL10/IP10 ELISA (R&D Systems, Minneapolis, Minn.) and is expressed as pg/ml. Shown are group means+/−standard deviation; ****p<0.0001.
FIG. 25 is a graph of ND-13 dose dependent IP-10 induction in human monocyte-derived macrophages. IP-10 expression was monitored by Human CXCL10/IP10 ELISA (R&D Systems, Minneapolis, Minn.) and is expressed as pg/ml. Shown are group means+/−standard deviation; ****p<0.0001.
As discussed above with regard to Example 19, target specificity of chemical entities corresponding to the ND and NA chemofamilies was examined by dose-dependent expression of IP-10 in mBMDMs. In this example, 23, target specificity of chemical entities corresponding to the ND and NA chemofamiles was examined by determining dose-dependent expression of IP-10 in human primary cells, specifically monocyte-derived macrophages. […] For FIGS. 24-25, IP-10 expression was monitored by Human CXCL10/IP10 ELISA (R&D Systems, Minneapolis, Minn.), and is expressed at FIGS. 24-25 as pg/ml.

[3] = system: IRF3 activating pathway (TRIF, IPS1, STING) in THF cell lines; assay: Interferon dependent luciferase reporter in telomerized human fibroblasts (THF) lacking adapter molecules; format: cell-based; conditions: WT THF, IPS1 KO, 23 μM compound or 313 ng/ml LPS
Experimental: Shown is fold-change of an interferon dependent luciferase reporter expressed in various telomerized human fibroblasts (THF) cell lines lacking key adapter molecules in the IRF3 activating pathway (WT THF, IPS1 KO, STING KO, and TRIF KO) in response to different treatments (untreated, Sendai 1/100, 313 ng/ml LPS, 23 μM NA-42). Shown are group means+/−SEM.
Select chemical entities corresponding to the NA and ND chemofamilies were examined as to their TRIF-dependency of IRF3 induction. TRIF, or TIR-domain-containing adapter-inducing interferon-β, is an adapter in responding to activation of toll-like receptors (TLRs). For reference, FIG. 26A illustrates a cell-signalling pathway including TRIF, along with TLR4, TLR3, IPS1, STING and IRF3. […] The treatment with Sendai 1/100 serves as an IPS1-dependent control, and the treatment with 313 ng/ml LPS serves as a TRIF-dependent control. As shown at FIG. 26B, treatment with 313 ng/ml LPS induces robust IRF3 induction in WT THF, IPS1 KO, and STING KO, but not in the TRIF KO, showing that LPS induction is TRIF-dependent. […] Assessment of fold change IRF3 was determined via measurement of the interferon dependent luciferase reporter.

[4] = system: plasma cytokines IL-6 and MCP1; assay: Plasma cytokine induction in vivo in mice; parameters: species or system mouse; conditions: WT C57/BL6 mice, 10 mg/kg, i.v.
Experimental: FIG. 27A is a bar graph illustrating the ability of NA-42 to induce plasma cytokine expression in vivo in mice. […] Expression is represented as pg/ml.
FIG. 27B is a bar graph illustrating the ability of ND-13 to induce plasma cytokine expression in vivo in mice. […] Expression is represented as pg/ml.
Plasma cytokine levels were evaluated using a cytokine 20-plex mouse ProcartaPlex kit (Invitrogen) for labeling of multiple cytokines within an individual sample and run on a Luminex 200 instrument.
Select chemical entities corresponding to the NA and ND chemofamilies were examined as to their ability to induce the expression of various cytokines in vivo. […] Shown at FIG. 27A is a representative example showing NA-42 induction of IL-6 (top panel) and MCP1 (bottom panel).

[5] = system: Chikungunya Virus (CHIKV); assay: Adjuvant effect on anti-CHIKV total IgG titers (CHIKV VLP prime/boost); format: in vivo, mouse; conditions: C57BL/6 mice, IM prime and boost, 3 weeks post-boost
Experimental: Conditions shown include virus-like particle (VLP) alone, VLP+5 mg/kg ND13, VLP+10 mg/kg ND13, VLP+5 mg/kg NA-42, and VLP+10 mg/kg NA-42. Depicted is Log 10 antibody titer representing anti-CHIKV Total IgG. Individual samples are depicted as filled circles for each condition. Bar graphs represent average geometric mean titers for each treatment cohort+standard deviation.
Select chemical entities corresponding to the NA and ND chemofamilies were examined as to their ability to act as adjuvants to enhance vaccine platforms. FIG. 28 depicts a representative example showing how NA-42 and ND-13 can enhance antibody titers to a Chikungunya Virus (CHIKV) challenge. C57BL/6 mice were primed and boosted IM with 10^6 PFU equivalents of CHIKVLP alone or in the presence of ND13 or NA42; 3 weeks post-boost mice were euthanized and total IgG reactive with CHIKV was measured by ELISA in duplicate. Data presented are average geometric mean titers for each treatment cohort including each animal. Specifically, FIG. 28 depicts various conditions (virus-like particle (VLP), VLP+5 mg/kg ND13, VLP+10 mg/kg ND13, VLP+5 mg/kg NA-42, and VLP+10 mg/kg NA-42) plotted against Log 10 antibody titer representing Anti-CHIKV Total IgG.

SMILES	CC50 [1]	IP-10 induction in human monocyte-derived macrophages [2]	TRIF-dependency of IRF3 induction [3]	plasma IL-6 and MCP1 expression in vivo [4]	antibody titers to CHIKV (Anti-CHIKV Total IgG) compared to VLP alone ([5]; VLP + 5 mg/kg)	antibody titers to CHIKV (Anti-CHIKV Total IgG) compared to VLP alone ([5]; VLP + 10 mg/kg)
COc1ccc(C(=O)Nc2cc(-c3nc4ccccc4s3)ccc2C)cc1[N+](=O)[O-] [ND-38]	> 25 µM	–	–	–	–	–
CCOc1cccc(COc2ccc(C(=O)Nc3ccc(N4CCN(C(=O)c5cccs5)CC4)cc3)cc2)c1 [NA-42, 4-((3-ethoxybenzyl)oxy)-N-(4-(4-(thiophene-2-carbonyl)piperazin-1-yl)phenyl)benzamide]	–	dose-dependent IP-10 induction	TRIF dependent	robust expression	robustly enhances	robustly enhances
COc1ccc(C(=O)Nc2cc(-c3nc4ccccc4s3)ccc2C)cc1[N+](=O)[O-] [ND52, N-[5-(1,3-benzothiazol-2-yl)-2-methylphenyl]-4-methoxy-3-nitrobenzamide]	101 µM	–	–	–	–	–
COc1ccc(C(=O)Nc2cc(-c3nc4cc(C)c(C)cc4o3)ccc2C)cc1[N+](=O)[O-] [ND-13, N-(5-(5,6-dimethylbenzo[d]oxazol-2-yl)-2-methylphenyl)-4-methoxy-3-nitrobenzamide]	–	dose-dependent IP-10 induction	TRIF-dependent	robust	–	robustly enhances
